Read-outs that look alike come from different tables or passages of the source.

The subject of data set [1] is ben-1 mutant (ECA882) C. elegans. Put plainly: microbe, parasite or virus in culture. To be noted: for C. elegans L1 relative development & viability (score 0-1 relative to DMSO controls): strain ECA882, deletion (ben-1); for LC50: Caenorhabditis elegans; for C. elegans L1 relative development & viability: ECA882 deletion (ben-1). The procedure:
Liquid development and viability assays were adapted from a previously established chemical screening protocol (Burns et al.)[24]. In brief, a saturated culture of E. coli HB101 was concentrated 2-fold in liquid NGM and 40 μL of this suspension was distributed to each well of a 96-well flat-bottom culture plate. 0.5 μL chemical solution (or DMSO alone) was added to each well (1% DMSO v/v) using either a multi-channel pipette or a pinning tool (V&P Scientific). L1 worms synchronized from an embryo preparation performed the day prior were diluted to a concentration of ~2 worms/μL in M9 buffer; 10 μL worm suspension was then added to each well. Culture plates were sealed with parafilm and placed in a plastic container lined with wet paper towels to prevent evaporation. Containers were then incubated for 6 days at 20 °C with shaking at 165 rpm. Following incubation, 300 μL M9 was added to each well to decrease the turbidity of the HB101-NGM suspension. Single images of each microplate well were then taken on a Nikon Ti Eclipse inverted microscope (Nikon NIS Elements AR). Images were processed using Python scripts to isolate worm-associated pixels from background. Scores of worm development and viability were determined as the sum of worm-associated pixels in each well. Development/viability scores for each well were divided by the development /viability scores for the corresponding DMSO controls, resulting in a relative viability value for each chemical. At least three biological replicates were performed for each dose-response experiment; relative viability values were averaged across replicates. […]
anthelmintics. a. Chemical structures of four commercial benzimidazole anthelmintics (e.g., albendazole, […]
Dose response of four commercial […]
elegans strains: N2, wild type; ECA882, deletion (ben-1); ECA917, F200Y (ben-1); ECA1075, F167Y (ben-1); ECA1080, E198A (ben-1); CB3474, G104D (ben-1). The colour-coded scale denotes the phenotypic outcome of drug treatment (e.g., motility or viability) relative to DMSO controls; white/pale- […]
death and arrested development. c. […]
benzimidazole anthelmintics (blue) were conducted in C. elegans development and viability assays for wild type (N2) and ben-1 mutant (ECA882) C. elegans (see Supplementary Date File 1).
All data used for generation of dose-response curves is the mean of at least three […]
Supplementary Figure 7 (continued). Davie et al.

In the next data set the test system is L1 wild-type C. elegans. To be noted: for KCN survival assay value relative to DMSO control, Mean: mean of replicates.
The next data set is described as follows: in vitro. To be noted: human, HEK293 Cell Viability Assay LC50, 2 days exposure.
[2] abbreviates: read-out: C. elegans ben-1 LC50.
[3] abbreviates: read-out: C. elegans ben-1 log10 LC50 (converted).
The mark [4] stands for this setting: 1 µM, score 0-1 relative to DMSO, values >1 set to 1.
The mark [5] stands for this setting: 2 µM, score 0-1 relative to DMSO, values >1 set to 1.
Where [6] appears, read: 3.9 µM, score 0-1 relative to DMSO, values >1 set to 1.
[7] abbreviates: 15.6 µM, score 0-1 relative to DMSO, values >1 set to 1.
Where [8] appears, read: 31.3 µM, score 0-1 relative to DMSO, values >1 set to 1.

In the case of `COC(=O)Nc1nc2ccc(Sc3ccccc3)cc2[nH]1` [fenbendazole, reference compound], the “C. elegans L1 relative development & viability (score 0-1 relative to DMSO controls)” value turned out to be 1.000 in data set [1] (1 µM); 1.000 in data set [1] (2 µM); 1.000 in data set [1] (3.9 µM); 0.861 in data set [1] (15.6 µM); 0.962 in data set [1] (31.3 µM); 0.936 in data set [1] (62.5 µM). In addition, the “C. elegans L1 relative development & viability (score 0-1 relative to DMSO controls)” value is 0.785 in data set [1] (125 µM), 0.877 in data set [1] (250 µM) and 0.667 in data set [1] (500 µM). The LC50 in data set [1] (setting [2]) and in data set [1] (setting [3]) was over 500 µM each time. The “C. elegans L1 relative development & viability” value in data set [1] (setting [4]) stood at 1.000; in data set [1] (setting [5]), 1.000; in data set [1] (setting [6]) it was 1.000; in data set [1] (15.6 µM, […]), 0.861; in data set [1] (31.3 µM, […]), 0.962; in data set [1] (62.5 µM, […]) it was 0.936. Moreover, the “C. elegans L1 relative development & viability” value in data set [1] (125 µM, […]) was found to be 0.785; in data set [1] (250 µM, […]), 0.877; in data set [1] (500 µM, […]), 0.667. The “KCN survival assay value relative to DMSO control, Mean” value in the data set on L1 wild-type C. elegans (dose 0.2 µM, […]) is 1.025; in the data set on L1 wild-type C. elegans (dose 0.4 µM, […]) it was 0.947; in the data set on L1 wild-type C. elegans (dose 0.8 µM, […]), 0.953; in the data set with L1 wild-type C. elegans (dose 3.1 µM, […]), 0.953; with L1 wild-type C. elegans (dose 6.3 µM, […]), 0.899; in the data set on L1 wild-type C. elegans (dose 12.5 µM, […]), 0.967. Besides, the “KCN survival assay value relative to DMSO control, Mean” value with L1 wild-type C. elegans (dose 25 µM, […]) is listed as 0.933; in the data set on L1 wild-type C. elegans (dose 50 µM, […]) it was 0.872; in the data set with L1 wild-type C. elegans (dose 100 µM, […]), 0.880.

For `COc1cc2c(cc1OC)C(c1ccc(-c3ccc(Cl)c(Cl)c3)o1)=NCC2` [NPD3577], it took 21.4 µM to reach half-maximal cytotoxicity in “in vitro” (CC50 at 2 days).

Take `COc1cc2c(cc1OC)C(C(C)c1ccc(CC(C)C)cc1)=NCC2` (stereo not drawn) [NPD10504]: the CC50 at 2 days in “in vitro” amounted to 36.6 µM.

Take `COC(=O)Nc1nc2ccc(C(=O)c3ccccc3)cc2[nH]1` [mebendazole, reference compound]: the LC50 in data set [1] (setting [2]) and in data set [1] (setting [3]) was over 250 µM throughout. The “C. elegans L1 relative development & viability” value in data set [1] (setting [4]) is recorded as 1.000; in data set [1] (setting [5]), 1.000; in data set [1] (setting [6]), 1.000; in data set [1] (setting [7]) it was 1.000; in data set [1] (setting [8]) it was 1.000; in data set [1] (62.5 µM, […]) it was 0.948. In addition, the “C. elegans L1 relative development & viability” value in data set [1] (125 µM, […]) is recorded as 0.701; in data set [1] (250 µM, […]), 0.623.

In “in vitro”, `COc1cc2c(cc1OC)C(/C=C/c1ccc(N(C)C)cc1)=NCC2` [NPD6303] displayed a CC50 at 2 days of 33.4 µM.

For the compound `O=C(NCCc1ccc(Cl)cc1)c1ccccc1C(F)(F)F` [Wact-11], the “C. elegans L1 relative motility, 3-hour post 200 µM KCN dilution” value (shortened to “C. elegans L1 relative motility”) stood at 0.985 in the data set with L1 wild-type C. elegans; 0.937 in the data set on L1 wild-type C. elegans (dose 0.1 µM, Mean of replicates); 0.997 in the data set on L1 wild-type C. elegans (dose 0.2 µM, Mean of replicates); 0.959 in the data set with L1 wild-type C. elegans (dose 0.4 µM, Mean of replicates); 0.815 in the data set with L1 wild-type C. elegans (dose 0.8 µM, Mean of replicates); 0.584 in the data set on L1 wild-type C. elegans (dose 3.1 µM, Mean of replicates). In addition, the “C. elegans L1 relative motility” value with L1 wild-type C. elegans (dose 6.3 µM, Mean of replicates) was found to be 0.376; in the data set on L1 wild-type C. elegans (dose 12.5 µM, Mean of replicates), 0.173; in the data set with L1 wild-type C. elegans (dose 25 µM, Mean of replicates), 0.067; in the data set with L1 wild-type C. elegans (dose 50 µM, Mean of replicates), 0.015; in the data set with L1 wild-type C. elegans (dose 100 µM, Mean of replicates), 0.006; in the data set with L1 wild-type C. elegans (dose […], Mean of replicates), 0.795. Besides, the “KCN survival assay value relative to DMSO control” value in the data set with L1 wild-type C. elegans was 0.985; in the data set on L1 wild-type C. elegans (15 hour drug + KCN treatment, dose 0.1 µM, Mean of replicates), 0.937; with L1 wild-type C. elegans (15 hour drug + KCN treatment, dose 0.2 µM, Mean of replicates) it was 0.997; in the data set on L1 wild-type C. elegans (15 hour drug + KCN treatment, dose 0.4 µM, Mean of replicates), 0.959; in the data set with L1 wild-type C. elegans (15 hour drug + KCN treatment, dose 0.8 µM, Mean of replicates), 0.815; with L1 wild-type C. elegans (15 hour drug + KCN treatment, dose 3.1 µM, Mean of replicates), 0.584. Besides, the “KCN survival assay value relative to DMSO control” value in the data set with L1 wild-type C. elegans (15 hour drug + KCN treatment, dose 6.3 µM, Mean of replicates) is 0.376; in the data set on L1 wild-type C. elegans (15 hour drug + KCN treatment, dose 12.5 µM, Mean of replicates), 0.173; in the data set with L1 wild-type C. elegans (15 hour drug + KCN treatment, dose 25 µM, Mean of replicates), 0.067; with L1 wild-type C. elegans (15 hour drug + KCN treatment, dose 50 µM, Mean of replicates), 0.015; in the data set on L1 wild-type C. elegans (15 hour drug + KCN treatment, dose 100 µM, Mean of replicates), 0.006. The “relative motility, 20 min after KCN removal” value in the data set on L1 wild-type C. elegans stood at 0.070. Also, the “relative motility, 80 min after KCN removal” value in the data set with L1 wild-type C. elegans is 0.012. For the same compound, the “relative motility, 110 min after KCN removal” value in the data set with L1 wild-type C. elegans worked out at 0.018. The “relative motility, 160 min after KCN removal” value in the data set with L1 wild-type C. elegans is on record as 0.009. Also, the “relative motility, 180 min after KCN removal” value in the data set with L1 wild-type C. elegans is listed as 0.000. In the data set on L1 wild-type C. elegans (caenorhabditis elegans), this compound displayed an LC50 of 4.43 µM.

Consider `c1ccc2[nH]c(-c3cscn3)nc2c1` [Thiabendazole], for which the LC50 in data set [1] (setting [2]) and in data set [1] (setting [3]) was 375 µM throughout. For the same compound, the “C. elegans L1 relative development & viability” value in data set [1] (1 µM, […]) came to 0.926; in data set [1] (2 µM, […]) it was 0.954; in data set [1] (3.9 µM, […]) it was 0.969; in data set [1] (setting [7]), 0.996; in data set [1] (setting [8]), 1.000; in data set [1] (62.5 µM, score 0-1 relative to DMSO, values >1 set to 1), 1.000. The “C. elegans L1 relative development & viability” value was found to be 1.000 in data set [1] (125 µM, score 0-1 relative to DMSO, values >1 set to 1); 0.967 in data set [1] (250 µM, […]); 0.155 in data set [1] (500 µM, […]). Besides, the “C. elegans L1 relative motility” value in the data set on L1 wild-type C. elegans ([…], score 0-1 relative to DMSO, values >1 set to 1) turned out to be 1.000.

As to `CC(C)Cc1ccc(C(C)c2nc3ccccc3n2C)cc1` (stereo not drawn) [NPD8790], in data set [1] (read-out: C. elegans (ben-1) Development & Viability Assay LC50), the LC50 is over 1000 µM.

As usually defined, the LC50 is the concentration lethal to half of the exposed cells or organisms. By CC50 is commonly meant the concentration that lowers cell viability or growth by half. Read a low CC50 as harm at low concentration.

(Values after article PMC11079024, “Identification of a family of species-selective complex I inhibitors as potential anthelmintics” (Nature Communications, 2024).)
